Measurements: publication PMC5734772, “Characterization of CobB kinetics and inhibition by nicotinamide” (PLoS ONE, 2017)

T1: CobB (Escherichia coli, UniProt P75960)
T1 construct: recombinant CobB, MBP tag cleaved
T1 sequence (P75960 1-279): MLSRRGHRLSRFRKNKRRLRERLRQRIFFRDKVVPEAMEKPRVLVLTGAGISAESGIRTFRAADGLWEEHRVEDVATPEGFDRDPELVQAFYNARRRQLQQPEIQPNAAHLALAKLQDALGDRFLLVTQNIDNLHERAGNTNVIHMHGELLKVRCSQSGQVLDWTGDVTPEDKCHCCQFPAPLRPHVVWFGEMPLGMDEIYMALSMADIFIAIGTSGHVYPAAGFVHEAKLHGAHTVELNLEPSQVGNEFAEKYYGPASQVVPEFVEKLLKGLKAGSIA


Assays:
CobB = target: T1, CobB; test: deacetylation of acetylated Acs by purified CobB at varied NAM and NAD+; Dixon and double-reciprocal plots (Ki approximately […]); format: biochemical
nicotinamidase (PncA) = target: T2, nicotinamidase (PncA) (Escherichia coli, UniProt P21369); test: activity of purified PncA after […] min incubation with […] inhibitor at […]°C; activity undetectable; format: biochemical
T2 construct: recombinant His6-tagged nicotinamidase

purified protein = substrate: NC(=O)c1cccnc1; test: purified protein; format: biochemical, Escherichia coli

| Molecule | activity of purified PncA after 10 min incubation with 1 mM inhibitor at 37°C; a (nicotinamidase (PncA)) | other results |
| --- | --- | --- |
| NC(=O)c1cccnc1 [nicotinamide] |  | IC50 (CobB): ~52 µM |
| N#Cc1cccnc1 [3-pyridinecarbonitrile] | This result confirms PncA inhibition by 3-pyridinecarbonitrile and 3-pyridinecarboxaldehide in vitro. |  |
| O=Cc1cccnc1 [3-pyridinecarboxaldehide] | This result confirms PncA inhibition by 3-pyridinecarbonitrile and 3-pyridinecarboxaldehide in vitro. |  |
| nicotinamidase (PncA) (Escherichia coli K-12) (protein, recombinant His6-tagged nicotinamidase) MPPRALLLVDLQNDFCAGGALAVPEGDSTVDVANRLIDWCQSRGEAVIASQDWHPANHGSFASQHGVEPYTPGQLDGLPQTFWPDHCVQNSEGAQLHPLLHQKAIAAVFHKGENPLVDSYSAFFDNGRRQKTSLDDWLRDHEIDELIVMGLATDYCVKFTVLDALQLGYKVNVITDGCRGVNIQPQDSAHAFMEMSAAGATLYTLADWEETQG |  | Km (purified protein): 175 ± 27 µM |
